Values of other authors, collected in patent US11682473B2, “Skin permeability prediction” (priority 2016, dated 2023).
Read-outs that look alike come from different tables or passages of the source.

Conditions: for log KPexp: uncorrected literature value (permeabilities in cm/h); for log Kp303K: experimental literature values (in vitro diffusion cells), averaged over sources, temperature-corrected to 303 K; for log KP, Experimental: Experimental row of Table 16 (in vitro diffusion cells)

Row | SMILES | log KPexp (Texp 25 °C) | log KPexp (Texp 31 °C) | log Kp303K [cm/h] | log KP, Experimental [cm/h] | log KPexp (Texp 37 °C)
1 | c1ccccc1 [Benzene, benzene] | −0.80 | −0.95 | −0.8 | – | –
2 | COc1ccc2c3c1O[C@H]1[C@@H](O)C=C[C@H]4[C@@H](C2)N(C)CC[C@@]341 [Codeine, codeine] | – | – | −4.6 | −4.6 | −4.6
3 | CN1CCCC1c1cccnc1 (stereo not shown) [Nicotine, nicotine] | −1.71 | – | −1.8 | −1.8 | −2.48
